In patent US11717639B2, “Combinatorial therapeutic systems and methods” (Cognifisense, Inc., priority 2018, dated 2023):
“Also recorded” adds a separate entry of the source.

Tests used:
[1] = tested on: pain; settings: reported; cited from earlier work
[2] = tested on: pain; test: Combinatorial therapy of opioid analgesic and VRNT: patient's amount of pain over time (FIGS. 5A-5C); type: in vivo; settings: opioid analgesic in combination with VRNT, potential patient responses
Text: FIGS. 5A-5C illustrate exemplary graphs of potential effects of combinatorial therapeutic systems/methods employing tapentadol and VRNT on a patient's amount of pain over time; and
The synergistic effects of the disclosed combinatorial therapeutic systems/methods can be exemplified in a plurality of responses. For example, FIGS. 5A-5C illustrate a combinatorial therapy using tapentadol (as the opioid analgesic) and VRNT (as the artificial sensory experience) with different potential patient responses. As many, if not all, patients may experience the synergistic benefits afforded by the disclosed combinatorial therapeutic systems/methods as an average benefit, the individual-specific responses may be different.

[3] = relative to tramadol and morphine; cited from earlier work
[4] = tested on: pain associated with fibromyalgia; test: Combinatorial therapy of milnacipran and VRNT or virtual reality distraction therapy for fibromyalgia; type: in vivo, patient
Text: In an exemplary embodiment, a combinatorial therapeutic system for treating fibromyalgia includes a serotonin-norepinephrine reuptake inhibitor (SNRI) and an artificial sensory experience. The SNRI can include milnacipran, specifically, and in some embodiments, the SNRI can include other SNRIs commonly prescribed to treat fibromyalgia (e.g., duloxetine). Similar to those combinatorial systems described above, the artificial sensory experience combined with the SNRI (preferably milnacipran) can include any of 2D/3D/4D artificial sensory experiences, holography, augmented reality, virtual reality, and/or mixed reality. In an exemplary embodiment, the artificial sensory experience is VRNT or virtual reality distraction therapy.
In some embodiments, the combinatorial treatment systems and methods for treating/mitigating pain associated with fibromyalgia can have similar results to those illustrated and described with respect to FIGS. 5A, 5B, 5C, 6A, and 6B.

[5] = tested on: benzodiazepine binding sites; settings: cited from earlier work
[6] = tested on: mACh receptors; settings: cited from earlier work
[7] = molecular target: H1 receptors (Homo sapiens, UniProt P35367); settings: cited from earlier work
Chain of H1 receptors (P35367 whole entry): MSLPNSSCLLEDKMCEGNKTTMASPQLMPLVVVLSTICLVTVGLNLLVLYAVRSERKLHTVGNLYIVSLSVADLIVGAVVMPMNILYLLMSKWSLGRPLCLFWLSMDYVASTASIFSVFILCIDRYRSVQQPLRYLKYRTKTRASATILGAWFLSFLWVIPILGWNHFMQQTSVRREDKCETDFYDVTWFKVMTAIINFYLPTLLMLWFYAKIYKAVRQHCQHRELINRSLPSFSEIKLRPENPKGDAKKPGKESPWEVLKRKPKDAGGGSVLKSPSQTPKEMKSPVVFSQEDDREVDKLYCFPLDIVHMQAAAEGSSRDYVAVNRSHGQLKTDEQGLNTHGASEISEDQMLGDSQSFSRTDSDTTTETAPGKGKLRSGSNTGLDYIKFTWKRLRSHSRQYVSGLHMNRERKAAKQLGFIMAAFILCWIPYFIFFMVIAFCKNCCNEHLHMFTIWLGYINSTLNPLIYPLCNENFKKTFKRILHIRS

[8] = tested on: α1 receptors; settings: cited from earlier work
[9] = molecular target: D2 receptors (Homo sapiens, UniProt P14416); settings: cited from earlier work
Chain of D2 receptors (P14416 whole entry): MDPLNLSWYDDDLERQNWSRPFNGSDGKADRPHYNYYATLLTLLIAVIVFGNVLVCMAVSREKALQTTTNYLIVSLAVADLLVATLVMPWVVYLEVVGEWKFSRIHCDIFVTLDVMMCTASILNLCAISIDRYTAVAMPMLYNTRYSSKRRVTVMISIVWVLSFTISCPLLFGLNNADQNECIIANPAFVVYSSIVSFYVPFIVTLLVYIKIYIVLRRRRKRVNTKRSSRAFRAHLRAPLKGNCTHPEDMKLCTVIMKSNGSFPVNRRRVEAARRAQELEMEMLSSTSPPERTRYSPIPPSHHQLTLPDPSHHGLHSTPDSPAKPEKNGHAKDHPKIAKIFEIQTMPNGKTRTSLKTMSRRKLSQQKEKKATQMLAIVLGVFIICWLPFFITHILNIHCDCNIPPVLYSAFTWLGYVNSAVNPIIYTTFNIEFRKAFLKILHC

[10] = molecular target: D1 receptors (Homo sapiens, UniProt P21728); settings: cited from earlier work
Chain of D1 receptors (P21728 whole entry): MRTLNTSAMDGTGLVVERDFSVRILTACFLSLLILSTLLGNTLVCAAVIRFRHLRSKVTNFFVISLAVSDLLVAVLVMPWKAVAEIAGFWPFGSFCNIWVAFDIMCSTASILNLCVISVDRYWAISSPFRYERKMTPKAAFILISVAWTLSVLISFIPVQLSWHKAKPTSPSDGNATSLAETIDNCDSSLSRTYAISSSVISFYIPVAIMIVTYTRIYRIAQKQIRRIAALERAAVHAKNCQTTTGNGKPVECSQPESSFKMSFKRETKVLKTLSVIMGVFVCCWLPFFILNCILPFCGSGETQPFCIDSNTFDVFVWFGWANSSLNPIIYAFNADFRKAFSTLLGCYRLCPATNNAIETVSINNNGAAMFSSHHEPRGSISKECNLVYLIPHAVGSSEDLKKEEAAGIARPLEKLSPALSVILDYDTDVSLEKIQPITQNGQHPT

[11] = tested on: opioid binding sites; settings: cited from earlier work

Structure (SMILES) | pain reduction / efficacy versus placebo [1] | patient's amount of pain over time [2] | potency [3] | pain over time [4] | actions on benzodiazepine binding sites [5] | actions on mACh receptors [6] | actions on H1 receptors [7] | actions on α1 receptors [8] | actions on D2 receptors [9] | actions on D1 receptors [10] | actions on opioid binding sites [11]
CC[C@@H](c1cccc(O)c1)[C@@H](C)CN(C)C [tapentadol] | limited efficacy beyond placebo; also recorded: only marginal incremental pain reduction versus placebo | constant or linear decrease in pain over time; also recorded: cyclical decrease and increase in pain levels over time with an overall decreasing pain level; also recorded: step-wise reduction in pain levels | somewhere between tramadol, another synthetic opioid, and morphine |  |  |  |  |  |  |  | 
CCN(CC)C(=O)C1(c2ccccc2)CC1CN (centres unmarked) [milnacipran] |  |  |  | decrease in pain over time | no significant actions | no significant actions | no significant actions | no significant actions | no significant actions | no significant actions | no significant actions
